In patent publication US20260182575A1, “MOLECULES HAVING PESTICIDAL UTILITY AND INTERMEDIATES AND PROCESSES RELATED THERETO” (CORTEVA AGRISCIENCE LLC, priority 2022, published 2026):

Tests used:
Format in all cases: in vivo
[1] = tested on: Soybean Looper (Chrysodeixis includens, PSEPIN, SBL); assay: Bioassay 4: soybean looper, artificial diet, 128-cell tray; details: AI alone
Protocol: (§1) Stock solutions were prepared with F1 as well as for each of the active ingredients individually. Test solutions were prepared from the stock solutions. Test solutions were prepared containing F1, the individual active ingredients, and mixtures of F1 with each of the active ingredients. The test solution for F1 was prepared by adding 500 μL of the stock solution to a 25 mL glass vial, then adding 500 μL of a 9:1 mixture of acetone:water. The individual active ingredients were prepared by adding 500 μL of stock solution to a 25 mL glass vial, then adding 500 μL of a 9:1 mixture of acetone:water. The test solutions containing mixtures of F1, and the individual active ingredients were prepared by adding 500 μL of the active ingredient stock solution to a 25 mL glass vial, followed by 500 μL of the F1 stock solution, creating a test solution containing 0.04% (w/v) of F1 and 0.4% (w/v) of the active ingredient. Each test solution was serially diluted to create desired doses of test solutions (F1 at 0.04% (w/v), 0.004% (w/v), 0.0004% (w/v), 0.00004% (w/v), 0.000004% (w/v), and 0.0000004% (w/v) and active ingredients at 0.4% (w/v), 0.04% (w/v), 0.004% (w/v), 0.0004% (w/v), 0.00004% (w/v), and 0.000004% (w/v)).
(§2) The test solutions were tested against CEW, FAW, and SBL using the following procedure: an artificial lepidopteran diet (Multispecies Lepidopteran Diet, Southland Products) was distributed in 128-cell bioassay trays (Frontier Agricultural Sciences™). 50 μL of test solution was pipetted into a cell in the bioassay tray. (The test solution doses of 0.04% (w/v), 0.004% (w/v), 0.0004% (w/v), 0.00004% (w/v), 0.000004% (w/v), and 0.0000004% (w/v) translated to concentrations of 5, 0.5, 0.05, 0.005, 0.0005, and 0.00005 μg/cm^2 on the diet, respectively.) A reference treatment (solvent check) was treated with the diluent only. Each treatment was replicated 8 times for each species. A 2nd instar CEW, FAW, or SBL larva was placed on top of the diet in each cell and was contained with a clear perforated adhesive lid. Test trays were held at approximately 26° C. and ambient relative humidity (RH) prior to grading.
(§3) After 5 days, the number of live larvae were recorded from each cell and percent control was measured using Abbott's correction formula (W. S. Abbott, J. Econ. Entomol. 18 (1925), pp. 265-267) as follows:
(§4) where X=No. of live larvae on solvent check and Y=No. of live larvae on treated diet. In Table B4 the “Expected % Control” was calculated using the method described in Colby S. R., Weeds, 1967, 15, 20-22. Bioassay 5: Neotropical Brown Stink Bug (Euschistus heros, EUSCHE, “BSB”).

[2] = tested on: Fall Armyworm (Spodoptera frugiperda, LAPHFR, FAW); assay: Bioassay 4: fall armyworm, artificial diet, 128-cell tray; details: AI alone
Protocol: as §1, §2, §3, §4

[3] = tested on: Green Peach Aphid (Myzus persicae, MYZUPE, GPA); assay: Bioassay 1: green peach aphid, cabbage seedling foliar spray; details: AI alone at the rate of Wt Ratio F1:AI 1:40000 (F1 0.04), 3 days
Protocol: Bioassay 1: Green Peach Aphid (Myzus persicae, MYZUPE, “GPA”).
Stock solutions of F1 and various active ingredients were prepared initially at a concentration of 4 milligrams per milliliter (mg/mL) for F1 and 0.1 mg/mL for the active ingredients, respectively, using a 1:1 mixture of acetone:methanol as a diluent. Stock solutions were prepared with F1 as well as for each of the active ingredients individually. Test solutions were prepared from the stock solutions. Test solutions were prepared containing F1, the individual active ingredients, and mixtures of F1 with each of the active ingredients. The test solutions for F1 and the individual active ingredients were prepared by adding 750 microliters (μL) of stock solution to a 25 mL glass vial, then adding 750 μL of 1:1 acetone:methanol solvent, followed by the addition of 13.5 mL water with 0.025% Tween® 20 to create a 0.0005% (weight/volume (w/v)) solution. The test solutions containing mixtures of F1, and the individual active ingredients were prepared by adding 750 μL of the active ingredient stock solution to a 25 mL glass vial, followed by 750 μL of the F1 stock solution, then by the addition of 13.5 mL water with 0.025% Tween® 20 to create a test solution containing 0.0005% (w/v) F1 and 0.0005% (w/v) of the active ingredient. Each test solution was serially diluted to create desired doses of test solutions (0.0005% (w/v), 0.000125% (w/v), 0.00003125% (w/v), 0.0000078% (w/v), 0.00000195% (w/v), and 0.0000005% (w/v)). In test solutions containing mixtures of F1 and the active ingredients, the active ingredients were diluted as described above, but the concentration of F1 was held constant (0.04% (w/v)).
The test solutions were tested against GPA using the following procedure: cabbage seedlings, grown in 3-inch pots with 2-3 small (3-5 centimeter (cm)) true leaves, were used as test substrate. The seedlings were infested with 20-50 GPA (wingless adult and nymph stages) one day prior to chemical application. Four pots with individual seedlings were used for each treatment. A hand-held aspirator-type sprayer was used for spraying a solution to both sides of […] leaves until runoff. Reference plants (solvent check) were sprayed with the diluent only (0.025% Tween® 20 and 10% acetone:methanol (1:1) in water). Treated plants were held in a holding room for three days at approximately 25° C. and ambient relative humidity (RH about 20% to about 45%) prior to grading. Evaluation was conducted by counting the number of live aphids per plant under a microscope three days after treatment. Percent control was measured using Abbott's correction formula (W. S. Abbott, J. Econ. Entomol. 18 (1925), pp. 265-267) as follows:
where X=No. of live aphids on solvent check plants and Y=No. of live aphids on treated plants. In Table B1 the “Expected % Control” was calculated using the method described in Colby S. R., Weeds, 1967, 15, 20-22. Bioassay 2: Sweet Potato Whitefly (Bemisia tabaci, BEMITA, “SPW”).

[4] = tested on: Corn Earworm (Helicoverpa zea, HELIZE, CEW); assay: Bioassay 4: corn earworm, artificial diet, 128-cell tray; details: AI alone
Protocol: as §1, §2, §3, §4

[5] = tested on: Sweet Potato Whitefly (Bemisia tabaci, BEMITA, SPW); assay: Bioassay 2: sweet potato whitefly, cotton seedling foliar spray; details: AI alone, Wt % AI 0.0001, 7-9 days
Protocol: Stock solutions were prepared with F1 as well as for each of the active ingredients individually. Test solutions were prepared from the stock solutions. Test solutions were prepared containing F1, the individual active ingredients, and mixtures of F1 with each of the active ingredients. The test solutions for F1 and the individual active ingredients were prepared by adding 500 μL of stock solution to a 25 mL glass vial, then adding 500 μL of acetone, followed by the addition of 9 mL water with 0.025% Tween® 20 to create a 0.001% (w/v) solution. The test solutions containing mixtures of F1, and the individual active ingredients were prepared by adding 500 μL of the active ingredient stock solution to a 25 mL glass vial, followed by 500 μL of the F1 stock solution, then by the addition of 9 mL water with 0.025% Tween® 20 to create a test solution containing 0.001% (w/v) F1 and 0.001% (w/v) of the active ingredient. Each test solution was serially diluted to create desired doses of test solutions (0.001% (w/v), 0.0001% (w/v), 0.00001% (w/v), 0.000001% (w/v), 0.0000001% (w/v), and 0.00000001% (w/v)).
The test solutions were tested against SPW using the following procedure: Cotton seedlings grown in 3-inch pots, pruned so that only one true leaf remained, were used as test substrate. Adult B. tabaci were allowed to colonize the cotton plants and lay eggs for 24 hours after which all adults were removed from the plants using compressed air. Plants were monitored for egg development, and when crawler emergence was underway (>25% emergence based on visual examination using a microscope), the plants were sprayed using the test solutions and methods described above for green peach aphids (GPA). Treated plants were held in a holding room at approximately 25° C. and ambient relative humidity (RH) prior to grading. Evaluation was conducted by counting the number of developed 2-3 instar nymphs per plant under a microscope 7-9 days after treatment. Percent control was measured using Abbott's correction formula (W. S. Abbott, J. Econ. Entomol. 18 (1925), pp. 265-267) as follows:
where X=No. of live nymphs on solvent check plants and Y=No. of live nymphs on treated plants. In Table B2 the “Expected % Control” was calculated using the method described in Colby S. R., Weeds, 1967, 15, 20-22. Bioassay 3: Western Flower Thrips (Frankliniella occidentalis, FRANOC, “WFT”).

[6] = tested on: Western Corn Rootworm (Diabrotica virgifera virgifera, DIABVI, WCR); assay: Bioassay 8: western corn rootworm, soil drench, corn root protection; details: AI alone, UgActive AI 1; DIABVI, soil drench, 13 days
Protocol: Corn seeds were planted in steam pasteurized soil filled greenhouse pots. Western corn rootworm Diabrotica virgifera virgifera eggs supplied from the Corteva Agriscience in Johnston, IA US, were suspended in a 0.08% agar solution added into the soil. Stock solutions of F1 and active ingredients were prepared at a concentration of either 250 or 500 ugai/10 mL for F1 and active ingredients at the ratios of (F1:AI) 1:0.004; 1:0.01; 1:0.02; 1:0.04; 1:0.08; 1:0.1; 1:0.15; 1:0.2; 1:0.4; 1:2; or 1:4, using a 1:1 solution of acetone:water as a diluent. A soil application of solutions were applied as a 10 mL drench over the soil. Plants were grown in the greenhouse for 13 days at 25 C after which the roots were removed from the soil, washed, and measured to determine the length of the median nodal roots. The measured lengths were compared to the infested and un-infested untreated checks to determine the mean percent control offered to protect the corn roots.

[7] = tested on: Western Flower Thrips (Frankliniella occidentalis, FRANOC, WFT); assay: Bioassay 3: western flower thrips, cotton leaf disc dip; details: 3 days
Protocol: Stock solutions of F1 and various active ingredients were prepared initially at a concentration of 0.1 mg/mL using acetone as a diluent. Stock solutions were prepared with F1 as well as for each of the active ingredients individually. Test solutions were prepared from the stock solutions. Test solutions were prepared containing F1, the individual active ingredients, and mixtures of F1 with each of the active ingredients. The test solutions for F1 and the individual active ingredients were prepared by adding 500 μL of stock solution to a 25 mL glass vial, then adding 500 μL of acetone, followed by the addition of 9 mL water with 0.025% Tween® 20 to create a 0.0005% (w/v) solution. The test solutions containing mixtures of F1, and the individual active ingredients were prepared by adding 500 μL of the active ingredient stock solution to a 25 mL glass vial, followed by 500 μL of the F1 stock solution, then by the addition of 9 mL water with 0.025% Tween® 20 to create a test solution containing 0.0005% (w/v) F1 and 0.0005% (w/v) of the active ingredient. Each test solution was serially diluted to create desired doses of test solutions (0.0005% (w/v), 0.000125% (w/v), 0.00003125% (w/v), 0.0000078% (w/v), and 0.00000195% (w/v)).
The test solutions were tested against WFT using the following procedure: Leaf discs (2.7 cm in diameter) were cut from the true leaves of cotton plants. Leaf discs were dipped into the test solutions and shaken to ensure complete coverage of the leaf disc and then placed in Millipore® PetriSlides containing a filter paper disc. Treated leaf discs were air dried for approximately 1 hour. Each leaf disc was infested with 5 WFT (9-10-day old nymphs) by placement on each leaf disc, and the PetriSlides were capped to prevent escape. Each treatment was replicated three times and the test treatments were held at approximately 26° C. and ambient relative humidity (RH) prior to grading. Reference discs (solvent check) were treated with the diluent only. Evaluation was conducted by counting the number of live WFT under magnification 3 days after treatment. Percent control was measured using Abbott's correction formula (W. S. Abbott, J. Econ. Entomol. 18 (1925), pp. 265-267) as follows:
where X=No. of live nymphs on solvent check leaf discs and Y=No. of live nymphs on treated leaf discs. In Table B3 the “Expected % Control” was calculated using the method described in Colby S. R., Weeds, 1967, 15, 20-22. Bioassay 4: Corn Earworm (Helicoverpa zea, HELIZE, “CEW”), Fall Armyworm (Spodoptera frugiperda, LAPHFR, “FAW”), and Soybean Looper (Chrysodeixis includens, PSEPIN, “SBL”).

| Structure (SMILES) | Average % Control AI ([1]; 0.000004 wt %) [%] | Average % Control AI ([2]; 0.000004 wt %) [%] | Average % Control AI [3] [%] | Average % Control AI ([4]; 0.000004 wt %) [%] | Average % Control AI ([4]; 0.00004 wt %) [%] | Average % Control AI [5] [%] | Average % Control AI [6] [%] | Average % Control AI ([1]; 0.00004 wt %) [%] | Average % Control AI ([2]; 0.00004 wt %) [%] | Average % Control AI ([7]; AI alone at 1:1 rate to F1 0.195 (10^-6 Wt %)) [%] | Average % Control AI ([7]; AI alone at 1:1 rate to F1 3.125 (10^-6 Wt %)) [%] |
| --- | --- | --- | --- | --- | --- | --- | --- | --- | --- | --- | --- |
| CNC(=O)c1cc(Cl)cc(C)c1NC(=O)c1cc(Br)nn1-c1ncccc1Cl [Chlorantraniliprole] | 37.5 | 62.5 | 8.1 | 0.0 | 0.0 | 28.0 |  |  |  |  |  |
| CO/N=C(/C1=NOCCO1)c1ccccc1Oc1ncnc(Oc2ccccc2Cl)c1F [Fluoxastrobin] |  |  |  |  |  |  | 0.0 |  |  |  |  |
| CN/C(=N\[N+](=O)[O-])NCc1cnc(Cl)s1 [Clothianidin] |  |  |  |  |  |  | 14.8 |  |  |  |  |
| N#Cc1nn(-c2c(Cl)cc(C(F)(F)F)cc2Cl)c(N)c1[S+]([O-])C(F)(F)F (centres unmarked) [Fipronil] | 0.0 | 0.0 |  | 0.0 | 0.0 | 8.9 |  | 0.0 | 0.0 | 9.5 | 42.9 |
